Tested on: Monoclonal antibody (mAb)
Assay: Binding affinity towards monoclonal antibody (MAb) using ELISA assay, activity expressed relative to WQMGHS=1

Row | Structure (SMILES) | Relative activity
1 | CSCC[C@@H](NC(=O)[C@H](CCC(N)=O)NC(=O)[C@H](N)Cc1c[nH]c2ccccc12)C(=O)NCC(=O)N[C@@H](Cc1c[nH]cn1)C(=O)N[C@@H](CO)C(=O)O | 0.75
2 | CSCC[C@H](NC(=O)[C@@H](CCC(N)=O)NC(=O)[C@H](N)Cc1c[nH]c2ccccc12)C(=O)NCC(=O)N[C@H](Cc1c[nH]cn1)C(=O)N[C@@H](CO)C(=O)O | 1.39
3 | CSCC[C@@H](NC(=O)[C@@H](CCC(N)=O)NC(=O)[C@@H](N)Cc1c[nH]c2ccccc12)C(=O)NCC(=O)N[C@H](Cc1c[nH]cn1)C(=O)N[C@@H](CO)C(=O)O | 1.58
4 | CSCC[C@@H](NC(=O)[C@H](CCC(N)=O)NC(=O)[C@@H](N)Cc1c[nH]c2ccccc12)C(=O)NCC(=O)N[C@@H](Cc1c[nH]cn1)C(=O)N[C@@H](CO)C(=O)O | 1.01
5 | CSCC[C@@H](NC(=O)[C@@H](CCC(N)=O)NC(=O)[C@@H](N)Cc1c[nH]c2ccccc12)C(=O)NCC(=O)N[C@@H](Cc1c[nH]cn1)C(=O)N[C@H](CO)C(=O)O | 0.81
6 | CSCC[C@@H](NC(=O)[C@@H](CCC(N)=O)NC(=O)[C@@H](N)Cc1c[nH]c2ccccc12)C(=O)NCC(=O)N[C@@H](Cc1c[nH]cn1)C(=O)N[C@@H](CO)C(=O)O | 0.75
7 | CSCC[C@@H](NC(=O)[C@H](CCC(N)=O)NC(=O)[C@@H](N)Cc1c[nH]c2ccccc12)C(=O)NCC(=O)N[C@H](Cc1c[nH]cn1)C(=O)N[C@H](CO)C(=O)O | 0.33
8 | CSCC[C@@H](NC(=O)[C@@H](CCC(N)=O)NC(=O)[C@@H](N)Cc1c[nH]c2ccccc12)C(=O)NCC(=O)N[C@H](Cc1c[nH]cn1)C(=O)N[C@H](CO)C(=O)O | 0.36
9 | CSCC[C@H](NC(=O)[C@@H](CCC(N)=O)NC(=O)[C@@H](N)Cc1c[nH]c2ccccc12)C(=O)NCC(=O)N[C@H](Cc1c[nH]cn1)C(=O)N[C@@H](CO)C(=O)O | 0.64
10 | CSCC[C@H](NC(=O)[C@@H](CCC(N)=O)NC(=O)[C@@H](N)Cc1c[nH]c2ccccc12)C(=O)NCC(=O)N[C@@H](Cc1c[nH]cn1)C(=O)N[C@H](CO)C(=O)O | 0.86
11 | CSCC[C@H](NC(=O)[C@H](CCC(N)=O)NC(=O)[C@@H](N)Cc1c[nH]c2ccccc12)C(=O)NCC(=O)N[C@@H](Cc1c[nH]cn1)C(=O)N[C@@H](CO)C(=O)O | 1
12 | CSCC[C@H](NC(=O)[C@H](CCC(N)=O)NC(=O)[C@@H](N)Cc1c[nH]c2ccccc12)C(=O)NCC(=O)N[C@@H](Cc1c[nH]cn1)C(=O)N[C@H](CO)C(=O)O | 0.64
13 | CSCC[C@@H](NC(=O)[C@H](CCC(N)=O)NC(=O)[C@H](N)Cc1c[nH]c2ccccc12)C(=O)NCC(=O)N[C@@H](Cc1c[nH]cn1)C(=O)N[C@H](CO)C(=O)O | 0.89
14 | CSCC[C@H](NC(=O)[C@@H](CCC(N)=O)NC(=O)[C@H](N)Cc1c[nH]c2ccccc12)C(=O)NCC(=O)N[C@@H](Cc1c[nH]cn1)C(=O)N[C@@H](CO)C(=O)O | 0.6
15 | CSCC[C@H](NC(=O)[C@H](CCC(N)=O)NC(=O)[C@@H](N)Cc1c[nH]c2ccccc12)C(=O)NCC(=O)N[C@H](Cc1c[nH]cn1)C(=O)N[C@H](CO)C(=O)O | 1.06
16 | CSCC[C@@H](NC(=O)[C@@H](CCC(N)=O)NC(=O)[C@H](N)Cc1c[nH]c2ccccc12)C(=O)NCC(=O)N[C@@H](Cc1c[nH]cn1)C(=O)N[C@H](CO)C(=O)O | 0.43
17 | CSCC[C@H](NC(=O)[C@H](CCC(N)=O)NC(=O)[C@@H](N)Cc1c[nH]c2ccccc12)C(=O)NCC(=O)N[C@H](Cc1c[nH]cn1)C(=O)N[C@@H](CO)C(=O)O | 0.85
18 | CSCC[C@@H](NC(=O)[C@H](CCC(N)=O)NC(=O)[C@@H](N)Cc1c[nH]c2ccccc12)C(=O)NCC(=O)N[C@H](Cc1c[nH]cn1)C(=O)N[C@@H](CO)C(=O)O | 1.31
19 | CSCC[C@@H](NC(=O)[C@H](CCC(N)=O)NC(=O)[C@H](N)Cc1c[nH]c2ccccc12)C(=O)NCC(=O)N[C@H](Cc1c[nH]cn1)C(=O)N[C@@H](CO)C(=O)O | 1.16
20 | CSCC[C@@H](NC(=O)[C@@H](CCC(N)=O)NC(=O)[C@H](N)Cc1c[nH]c2ccccc12)C(=O)NCC(=O)N[C@@H](Cc1c[nH]cn1)C(=O)N[C@@H](CO)C(=O)O | 1.89
21 | CSCC[C@H](NC(=O)[C@@H](CCC(N)=O)NC(=O)[C@@H](N)Cc1c[nH]c2ccccc12)C(=O)NCC(=O)N[C@@H](Cc1c[nH]cn1)C(=O)N[C@@H](CO)C(=O)O | 0.82
22 | CSCC[C@@H](NC(=O)[C@@H](CCC(N)=O)NC(=O)[C@H](N)Cc1c[nH]c2ccccc12)C(=O)NCC(=O)N[C@H](Cc1c[nH]cn1)C(=O)N[C@H](CO)C(=O)O | 0.44
23 | CSCC[C@H](NC(=O)[C@@H](CCC(N)=O)NC(=O)[C@H](N)Cc1c[nH]c2ccccc12)C(=O)NCC(=O)N[C@@H](Cc1c[nH]cn1)C(=O)N[C@H](CO)C(=O)O | 0.88
24 | CSCC[C@@H](NC(=O)[C@H](CCC(N)=O)NC(=O)[C@@H](N)Cc1c[nH]c2ccccc12)C(=O)NCC(=O)N[C@@H](Cc1c[nH]cn1)C(=O)N[C@H](CO)C(=O)O | 1.17
25 | CSCC[C@H](NC(=O)[C@H](CCC(N)=O)NC(=O)[C@H](N)Cc1c[nH]c2ccccc12)C(=O)NCC(=O)N[C@@H](Cc1c[nH]cn1)C(=O)N[C@H](CO)C(=O)O | 0.83
26 | CSCC[C@H](NC(=O)[C@H](CCC(N)=O)NC(=O)[C@H](N)Cc1c[nH]c2ccccc12)C(=O)NCC(=O)N[C@H](Cc1c[nH]cn1)C(=O)N[C@H](CO)C(=O)O | 1
27 | CSCC[C@H](NC(=O)[C@H](CCC(N)=O)NC(=O)[C@H](N)Cc1c[nH]c2ccccc12)C(=O)NCC(=O)N[C@H](Cc1c[nH]cn1)C(=O)N[C@@H](CO)C(=O)O | 0.78
28 | CSCC[C@H](NC(=O)[C@H](CCC(N)=O)NC(=O)[C@H](N)Cc1c[nH]c2ccccc12)C(=O)NCC(=O)N[C@@H](Cc1c[nH]cn1)C(=O)N[C@@H](CO)C(=O)O | 1.33
29 | CSCC[C@@H](NC(=O)[C@@H](CCC(N)=O)NC(=O)[C@H](N)Cc1c[nH]c2ccccc12)C(=O)NCC(=O)N[C@H](Cc1c[nH]cn1)C(=O)N[C@@H](CO)C(=O)O | 0.9

Source: ChEMBL document CHEMBL1127195, “Screening chemically synthesized peptide libraries for biologically-relevant molecules” (Bioorg Med Chem Lett, 1993)
